{"source": "patent US10292412B2", "about": "“High solubility natural sweetener compositions” (KRAFT FOODS GLOBAL BRANDS LLC, priority 2012, dated 2019)", "key": {"[1]": {"experiment": "Example 2: solubility of rebaudioside A in liquid concentrates with varying water, acid and alcohol", "type": "physicochemical", "set-up": "scale not given here", "protocol": "Liquid concentrate formulations were prepared including varying levels of rebaudioside A, water, alcohol, and acid. The solubility was measured at various concentrations of each of the components and the results are included in the tables below: […]"}, "[2]": {"experiment": "Example 3: solubility (1-5 scale) after seven days; ambient water, heated water or 0.45 micron filtered rebaudioside A solutions with citric acid and ethanol", "type": "physicochemical", "protocol": "Several solutions including rebaudioside A were prepared to test the effect of heating and filtering on the solubility of rebaudioside A. The formulations are as follows: […]\nThe solutions for the ambient water experimentation were prepared by dissolving rebaudioside A in ambient water (about 68° F. to about 77° F.) using a magnetic stir bar. Citric acid and ethanol were then dissolved into the solution using a magnetic stir bar.\nThe solutions for the heated water experimentation were prepared by heating water to 150° F. Rebaudioside A was added and dissolved using a magnetic stir bar. The solution was removed from the heat and citric acid was added and dissolved by a magnetic stir bar. After the solution cooled to 100° F. or below, ethanol was added and stirred into the solution by a magnetic stirrer.\nThe solutions for the filtered rebaudioside A experimentation were prepared by first dissolving rebaudioside A in ambient water (about 68° F. to about 77° F.) using a magnetic stir bar. The solution was then passed through a 0.45 micron filter. Citric acid and ethanol were dissolved into the solution using a magnetic stir bar.\nSolubility was measured according to the 1-5 scale in the table above after seven days. […]"}}, "note": "Where “and” joins values, the source holds several entries; their conditions need not be identical. Equal entries are not always repeated.", "data": [{"smiles": "C=C1C[C@@]23CC[C@H]4[C@@](C)(CCC[C@@]4(C)C(=O)O[C@@H]4O[C@H](CO)[C@@H](O)[C@H](O)[C@H]4O)[C@@H]2CC[C@]1(O[C@@H]1O[C@H](CO)[C@@H](O)[C@H](O[C@@H]2O[C@H](CO)[C@@H](O)[C@H](O)[C@H]2O)[C@H]1O[C@@H]1O[C@H](CO)[C@@H](O)[C@H](O)[C@H]1O)C3", "note": "[Reb A, rebaudioside A]", "values": [{"measurement": "Response 1 Solubility", "setting": "[1]; Water/Phosphoric Acid/Ethanol (190 Proof)/RebA 66.26/0.00/33.13/0.60 ml", "value": 1}, {"measurement": "Response 1 Solubility", "setting": "[1]; Water/Phosphoric Acid/Ethanol (190 Proof)/RebA 92.44/0.00/0.00/7.56 ml", "value": 5}, {"measurement": "Response 1 Solubility", "setting": "[1]; Water/Phosphoric Acid/Ethanol (190 Proof)/RebA 99.40/0.00/0.00/0.60 ml", "value": "3 and 2"}, {"measurement": "Response 1 Solubility", "setting": "[1]; Water/Tartaric Acid/Ethanol (190 Proof)/RebA 18.70369333/21.97/51.77/7.56 ml", "value": 1}, {"measurement": "Response 1 Solubility", "setting": "[1]; Water/Tartaric Acid/Ethanol (190 Proof)/RebA 19.2674479/6.63/71.76/2.34 ml", "value": 2}, {"measurement": "Response 1 Solubility", "setting": "[1]; Water/Tartaric Acid/Ethanol (190 Proof)/RebA 19.2674479/14.30/62.35/4.08 ml", "value": 2}, {"measurement": "Response 1 Solubility", "setting": "[1]; Water/Tartaric Acid/Ethanol (190 Proof)/RebA 30.1664432/27.48/41.75/0.60 ml", "value": 1}, {"measurement": "Response 1 Solubility", "setting": "[1]; Water/Tartaric Acid/Ethanol (190 Proof)/RebA 30.81333333/4.93/56.70/7.56 ml", "value": 2}, {"measurement": "Response 1 Solubility", "setting": "[1]; Water/Tartaric Acid/Ethanol (190 Proof)/RebA 33.13173333/0.00/66.26/0.60 ml", "value": 1}, {"measurement": "Response 1 Solubility", "setting": "[1]; Water/Tartaric Acid/Ethanol (190 Proof)/RebA 33.2952179/19.41/41.47/5.82 ml", "value": 1}, {"measurement": "Response 1 Solubility", "setting": "[1]; Water/Tartaric Acid/Ethanol (190 Proof)/RebA 37.40738667/29.15/25.88/7.56 ml", "value": 1}, {"measurement": "Response 1 Solubility", "setting": "[1]; Water/Tartaric Acid/Ethanol (190 Proof)/RebA 39.9320216/13.74/45.72/0.60 ml", "value": 1}, {"measurement": "Response 1 Solubility", "setting": "[1]; Water/Tartaric Acid/Ethanol (190 Proof)/RebA 47.9588/0.00/47.96/4.08 ml", "value": 1}, {"measurement": "Response 1 Solubility", "setting": "[1]; Water/Tartaric Acid/Ethanol (190 Proof)/RebA 49.4338911/26.16/22.06/2.34 ml", "value": 1}, {"measurement": "Response 1 Solubility", "setting": "[1]; Water/Tartaric Acid/Ethanol (190 Proof)/RebA 49.51702667/12.11/30.81/7.56 ml", "value": 1}, {"measurement": "Response 1 Solubility", "setting": "[1]; Water/Tartaric Acid/Ethanol (190 Proof)/RebA 57.8023437/16.05/22.06/4.08 ml", "value": 1}, {"measurement": "Response 1 Solubility", "setting": "[1]; Water/Tartaric Acid/Ethanol (190 Proof)/RebA 60.3328864/39.06/0.00/0.60 ml", "value": 1}, {"measurement": "Response 1 Solubility", "setting": "[1]; Water/Tartaric Acid/Ethanol (190 Proof)/RebA 61.92/9.00/25.00/4.08 ml", "value": 2}, {"measurement": "Response 1 Solubility", "setting": "[1]; Water/Tartaric Acid/Ethanol (190 Proof)/RebA 65.18/8.00/21.00/5.82 ml", "value": 3}, {"measurement": "Response 1 Solubility", "setting": "[1]; Water/Tartaric Acid/Ethanol (190 Proof)/RebA 65.44/8.00/19.00/7.56 ml", "value": 4}, {"measurement": "Response 1 Solubility", "setting": "[1]; Water/Tartaric Acid/Ethanol (190 Proof)/RebA 65.4874479/6.63/22.06/5.82 ml", "value": 4}, {"measurement": "Response 1 Solubility", "setting": "[1]; Water/Tartaric Acid/Ethanol (190 Proof)/RebA 66.26346667/0.00/33.13/0.60 ml", "value": 1}, {"measurement": "Response 1 Solubility", "setting": "[1]; Water/Tartaric Acid/Ethanol (190 Proof)/RebA 68.22072/24.22/0.00/7.56 ml", "value": 2}, {"measurement": "Response 1 Solubility", "setting": "[1]; Water/Tartaric Acid/Ethanol (190 Proof)/RebA 71.18/16.00/7.00/5.82 ml", "value": 2}, {"measurement": "Response 1 Solubility", "setting": "[1]; Water/Tartaric Acid/Ethanol (190 Proof)/RebA 75.92/3.00/17.00/4.08 ml", "value": 4}, {"measurement": "Response 1 Solubility", "setting": "[1]; Water/Tartaric Acid/Ethanol (190 Proof)/RebA 75.92/12.00/8.00/4.08 ml", "value": 3}, {"measurement": "Response 1 Solubility", "setting": "[1]; Water/Tartaric Acid/Ethanol (190 Proof)/RebA 76.18/11.00/7.00/5.82 ml", "value": 4}, {"measurement": "Response 1 Solubility", "setting": "[1]; Water/Tartaric Acid/Ethanol (190 Proof)/RebA 77.0697916/18.85/0.00/4.08 ml", "value": 2}, {"measurement": "Response 1 Solubility", "setting": "[1]; Water/Tartaric Acid/Ethanol (190 Proof)/RebA 78.92/5.00/12.00/4.08 ml", "value": 4}, {"measurement": "Response 1 Solubility", "setting": "[1]; Water/Tartaric Acid/Ethanol (190 Proof)/RebA 84.92/3.00/8.00/4.08 ml", "value": 5}, {"measurement": "Response 1 Solubility", "setting": "[1]; Water/Tartaric Acid/Ethanol (190 Proof)/RebA 86.3744288/13.02/0.00/0.60 ml", "value": 1}, {"measurement": "Response 1 Solubility", "setting": "[1]; Water/Tartaric Acid/Ethanol (190 Proof)/RebA 92.44/0.00/0.00/7.56 ml", "value": 5}, {"measurement": "Response 1 Solubility", "setting": "[1]; Water/Tartaric Acid/Ethanol (190 Proof)/RebA 99.3952/0.00/0.00/0.60 ml", "value": 2}, {"measurement": "Response 1 Solubility", "setting": "[1]; Water/acid/alcohol/RebA 96.67/0.00/0.00/3.33 ml", "value": 5}, {"measurement": "Response 1 Solubility", "setting": "[1]; Water/acid/alcohol/RebA 97.01/0.00/0.00/2.99 ml", "value": 5}, {"measurement": "Response 1 Solubility", "setting": "[1]; Water/acid/alcohol/RebA 97.34/0.00/0.00/2.66 ml", "value": 5}, {"measurement": "Response 1 Solubility", "setting": "[1]; Water/acid/alcohol/RebA 97.67/0.00/0.00/2.33 ml", "value": 5}, {"measurement": "Response 1 Solubility", "setting": "[1]; Water/acid/alcohol/RebA 98.00/0.00/0.00/2.00 ml", "value": 5}, {"measurement": "Response 1 Solubility", "setting": "[1]; Water/acid/alcohol/RebA 98.34/0.00/0.00/1.66 ml", "value": 5}, {"measurement": "Response 1 Solubility", "setting": "[1]; Water/acid/alcohol/RebA 98.67/0.00/0.00/1.33 ml", "value": 5}, {"measurement": "Response 1 Solubility", "setting": "[1]; Water/acid/alcohol/RebA 99.00/0.00/0.00/1.00 ml", "value": 5}, {"measurement": "Response 1 Solubility", "setting": "[1]; Water/acid/alcohol/RebA 99.33/0.00/0.00/0.67 ml", "value": 2}, {"measurement": "Response 1 Solubility", "setting": "[1]; Water/acid/alcohol/RebA 99.67/0.00/0.00/0.33 ml", "value": 1}, {"measurement": "solubility after seven days", "setting": "[2]; ambient water, 5 wt % rebaudioside A, all ethanol/acid conditions tested except high ethanol (30% by volume) and high acid (30% by weight)", "value": "crystallized"}, {"measurement": "solubility after seven days", "setting": "[2]; ambient water, 10 wt % rebaudioside A, high ethanol (30% by volume) and high acid (30% by weight)", "value": "failed"}, {"measurement": "solubility after seven days", "setting": "[2]; ambient water, filtered at 0.45 micron, 5 wt % rebaudioside A, all points except low acid/low ethanol", "value": "passed"}, {"measurement": "solubility after seven days", "setting": "[2]; heated water (150° F.), 5 wt % rebaudioside A, all ethanol/acid points", "value": "passed"}, {"measurement": "solubility after seven days", "setting": "[2]; heated water (150° F.), 10 wt % rebaudioside A, all ethanol/acid points", "value": "passed"}, {"measurement": "solubility after seven days", "setting": "[2]; heated water (150° F.), 15 wt % rebaudioside A, low ethanol (10%)/low acid (10%)", "value": "failed"}, {"measurement": "solubility after seven days", "setting": "[2]; heated water (150° F.), 15 wt % rebaudioside A, medium ethanol (20%)/low acid", "value": "failed"}]}]}
